Reference: patent publication US6515025B2, “Use of ethynyl alanine amino diol compounds to inhibit enzymatic conversion of angiotensinogen to angiotensin I” (Pharmacia Corporation, priority 1991, dated 2003)

What was measured:
renin (Rat plasma) = molecular target: T1, renin (Rat plasma) (Rattus norvegicus, UniProt P08424); assay: Renin inhibitor species specificity, rat plasma renin activity; format: biochemical
T1 construct: the animal plasma is the source of both the renin substrate and the renin enzyme; from tissue; host or cells: pooled rat plasma
T1 sequence (P08424 65-402): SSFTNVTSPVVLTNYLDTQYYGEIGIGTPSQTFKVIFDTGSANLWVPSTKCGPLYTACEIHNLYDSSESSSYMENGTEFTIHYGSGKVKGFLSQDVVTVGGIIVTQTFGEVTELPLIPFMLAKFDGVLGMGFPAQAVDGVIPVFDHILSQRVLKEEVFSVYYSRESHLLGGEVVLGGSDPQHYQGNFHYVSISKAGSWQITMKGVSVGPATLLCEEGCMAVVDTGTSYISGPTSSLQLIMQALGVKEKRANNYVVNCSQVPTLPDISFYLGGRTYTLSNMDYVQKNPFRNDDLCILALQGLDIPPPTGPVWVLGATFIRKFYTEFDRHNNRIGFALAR
Protocol: (§1) Blood was collected in a 10 ml Becton Dickinson vacutainer tube with 0.1 ml of 15% EDTA (K3) solution (15 mg) from normal animals or high renin animals; i.e., those pre-treated with 5 mg/kg of Lasix® intramuscularly 2 times within a 6 hour interval 24 hours prior to bleeding. The blood was then centrifuged at 2500 RPM for 20 minutes and the plasma from the various species respectively pooled, aliquoted and stored in the freezer. The human plasma source was taking a prescription of an angiotensin converting enzyme inhibitor.
(§2) The plasma renin activity assay is a modification of the human renin inhibition test in that the animal plasma is the source of both the renin substrate and the renin enzyme. In a total volume of 0.1 ml, 90 mM Tris-acetate buffer, pH 7.5, 12 mM sodium EDTA, 0.012 mg/ml neomycin sulfate, 0.9 mg/ml bovine serum albumin, 1.61 mM phenylmethyl sulfonyl fluoride, 4 mM 8-hydroxyquinoline and 0.09 ml of the animal or human plasmas were incubated for 2 hours at 37° C. in a shaking water bath or at 4° C. in an ice bath in the presence or absence of renin inhibitors. The produced angiotensin I was determined by radioimmunoassay (New England Nuclear kit).
(§3) The amount of angiotensin I generated during the 2 hours at 4° C. was usually less than 5% of that activity produced at 37° C.; however, the 4° C. background values were nevertheless subtracted from the 37° C. ones for the 100% activity values. The renin inhibitors were assayed in duplicate using 5 concentrations and the data is expressed as a percent of the 100% total renin activity.

renin (human plasma) = molecular target: T2, renin (human plasma) (Homo sapiens, UniProt P00797); assay: Renin inhibitor species specificity, human plasma renin activity; format: biochemical
T2 construct: the animal plasma is the source of both the renin substrate and the renin enzyme; from tissue
T2 sequence (P00797 67-406): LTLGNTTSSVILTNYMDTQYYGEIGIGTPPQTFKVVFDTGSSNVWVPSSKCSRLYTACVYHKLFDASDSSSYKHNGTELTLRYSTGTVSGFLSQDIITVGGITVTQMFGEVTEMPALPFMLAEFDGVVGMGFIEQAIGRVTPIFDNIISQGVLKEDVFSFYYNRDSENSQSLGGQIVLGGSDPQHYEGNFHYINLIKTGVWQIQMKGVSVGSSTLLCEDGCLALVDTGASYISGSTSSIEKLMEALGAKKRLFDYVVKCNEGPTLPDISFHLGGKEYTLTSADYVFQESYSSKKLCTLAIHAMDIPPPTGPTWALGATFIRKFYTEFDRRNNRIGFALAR
Protocol: as §1, §2, §3

C#CC[C@H](NC(=O)C(CC(=O)N(C)CCN(C)C)Cc1ccccc1)C(=O)NC(CC1CCCCC1)[C@@H](O)C(O)CC(C)C (relative stereo) [Example 1, N1-[1R*-[[[1S,1R*-(cyclohexylmethyl)-2S*,3R*-dihydroxy-5-methylhexyl]amino]carbonyl]-3-butynyl]-N4-[2-(dimethylamino)ethyl]-N4-methyl-2S*-(phenylmethyl)butanediamide]
% of Total Renin Activity (renin (Rat plasma); 100 nM): 93% | % of Total Renin Activity (renin (Rat plasma); 400 nM): 76% | % of Total Renin Activity (range only) (renin (Rat plasma); 1600 nM): (23-34) | % of Total Renin Activity (renin (human plasma); 1 nM): 90% | % of Total Renin Activity (renin (human plasma); 4 nM): 50% | % of Total Renin Activity (renin (human plasma); 16 nM): 10%
